# Laboratory results taken from ChEMBL document CHEMBL6127081, “Peptide inhibitors targeting Ras and Ras-associated protein-protein interactions” (Eur J Med Chem, 2024).
# pEC50, pIC50, pKd: −log10 of the molar value. Where a SMILES comes first, the peptide text is derived from it. Bridges are numbered along the chain shown (N, C = ends). [ ]: non-standard residue; d: D form. The star is where a group is joined. hPhe(3,5-F2-4-CF3) = N[C@@H](CCc1cc(F)c(C(F)(F)F)c(F)c1)C(=O)O; hPhe(3-Cl-4-CF3) = N[C@@H](CCc1ccc(C(F)(F)F)c(Cl)c1)C(=O)O; hPhe(4-CF3) = N[C@@H](CCc1ccc(C(F)(F)F)cc1)C(=O)O; NEtPhe(4-Me) = CCN[C@@H](Cc1ccc(C)cc1)C(=O)O; NMePhe(4-Cl) = CN[C@@H](Cc1ccc(Cl)cc1)C(=O)O; Phe(3-Cl) = N[C@@H](Cc1cccc(Cl)c1)C(=O)O; NMeGly(cPent) = CN[C@H](C(=O)O)C1CCCC1; Phe(4-F) = N[C@@H](Cc1ccc(F)cc1)C(=O)O; 2Nal = N[C@@H](Cc1ccc2ccccc2c1)C(=O)O; NMeCha = CN[C@@H](CC1CCCCC1)C(=O)O; NMeF = CN[C@@H](Cc1ccccc1)C(=O)O; NMeD = CN[C@@H](CC(=O)O)C(=O)O; NMeL = CN[C@@H](CC(C)C)C(=O)O; NMeV = CN[C@H](C(=O)O)C(C)C; NMeA = CN[C@@H](C)C(=O)O; Nle = CCCC[C@H](N)C(=O)O; Pyrrolidide = C1CCN(*)C1; Ac5c = NC1(C(=O)O)CCCC1; Aze = O=C(O)[C@@H]1CCN1; β3hA = C[C@H](N)CC(=O)O; Sar = CNCC(=O)O
# Tests used:
# [1] = Inhibition of Biotinylated Avi-tagged KRas G12D mutant/GST tagged Raf1-RBD domain (1 to 149 residues) (unknown origin) incubated for 1 hr by TR-FRET assay; design: species or system Homo sapiens
# GTPase KRas/RAF1 = GTPase KRas/RAF1 (Homo sapiens, UniProt P01116); experiment: Inhibition of KRAS/RAF interaction (unknown origin) by HTRF assay; assay type: protein assay
# SOS1-KRAS = SOS1-KRAS (Homo sapiens, UniProt P01116, G12D); experiment: Inhibition of KRAS G12D mutant/SOS1 (unknown origin) interaction by TR-FRET assay; assay type: protein-complex assay
# GTPase KRas [2] = molecular target: T1, GTPase KRas (Homo sapiens, UniProt P01116); experiment: Binding affinity to KRas (unknown origin) assessed as dissociation constant
# GTPase KRas [3] = molecular target: T1, GTPase KRas; experiment: Binding affinity to GppNHp bound KRas (unknown origin) assessed as dissociation constant by fluorescence anisotropy assay
# GTPase KRas [4] = molecular target: T1, GTPase KRas; experiment: Binding affinity to GTP bound KRas (unknown origin) assessed as dissociation constant by fluorescence anisotropy assay
# GTPase KRas [5] = molecular target: T1, GTPase KRas; experiment: Inhibition of KRas (unknown origin)
# GTPase KRas [6] = molecular target: T2, GTPase KRas (Homo sapiens, UniProt P01116, G12D); experiment: Inhibition of human KRas G12D mutant incubated for 0.5 hrs by absorbance based analysis
# GTPase KRas [7] = molecular target: T2, GTPase KRas; experiment: Binding affinity to KRas G12D mutant (unknown origin) assessed as dissociation constant by SPR analysis
# GTPase KRas [8] = molecular target: T2, GTPase KRas; experiment: Inhibition of KRas G12D mutant (unknown origin) by TR-FRET assay
# T1 sequence (P01116 whole entry): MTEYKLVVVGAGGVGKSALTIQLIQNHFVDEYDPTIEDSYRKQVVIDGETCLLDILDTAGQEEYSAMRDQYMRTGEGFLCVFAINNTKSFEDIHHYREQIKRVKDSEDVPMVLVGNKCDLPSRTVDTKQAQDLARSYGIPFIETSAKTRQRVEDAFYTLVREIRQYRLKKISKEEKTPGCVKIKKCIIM
# Chain of SOS1-KRAS (P01116 whole entry G12D, looked up): as the sequence (P01116 whole entry) above, with G12D counted along it
# T2 sequence (P01116 whole entry G12D): as the sequence (P01116 whole entry) above, with G12D counted along it
# Chain of GTPase KRas/RAF1 (P04049 whole entry): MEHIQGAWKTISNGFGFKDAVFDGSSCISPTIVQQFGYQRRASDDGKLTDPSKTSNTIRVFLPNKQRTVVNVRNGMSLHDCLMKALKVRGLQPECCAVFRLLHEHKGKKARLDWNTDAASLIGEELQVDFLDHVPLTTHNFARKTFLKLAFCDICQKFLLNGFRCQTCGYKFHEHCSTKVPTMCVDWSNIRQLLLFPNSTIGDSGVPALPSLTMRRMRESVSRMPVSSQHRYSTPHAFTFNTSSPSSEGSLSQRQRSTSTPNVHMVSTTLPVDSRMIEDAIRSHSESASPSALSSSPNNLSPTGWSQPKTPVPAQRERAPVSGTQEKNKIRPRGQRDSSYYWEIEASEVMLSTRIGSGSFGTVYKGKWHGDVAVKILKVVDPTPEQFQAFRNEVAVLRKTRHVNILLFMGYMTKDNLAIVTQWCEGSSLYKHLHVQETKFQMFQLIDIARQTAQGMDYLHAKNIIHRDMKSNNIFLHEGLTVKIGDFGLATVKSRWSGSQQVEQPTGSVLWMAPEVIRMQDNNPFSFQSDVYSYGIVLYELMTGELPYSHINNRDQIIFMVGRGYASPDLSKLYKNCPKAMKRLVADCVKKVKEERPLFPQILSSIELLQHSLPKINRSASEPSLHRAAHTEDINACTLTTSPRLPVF
# Chain of GTPase KRas/RAF1 (P01116 whole entry): as the sequence (P01116 whole entry) above
compound,measurement,setting,value
CC[C@H](C)[C@@H]1NC(=O)[C@H](Cc2ccccc2)NC(=O)[C@H](CCCCN)NC(=O)[C@H](CCC(=O)O)NC(=O)[C@H]([C@@H](C)O)NC(=O)[C@H](C(C)C)NC(=O)[C@H]([C@@H](C)CC)NC(=O)[C@H]([C@@H](C)CC)NC(=O)[C@H](Cc2ccc(O)cc2)NC(=O)CSC[C@@H](C(=O)NCC(N)=O)NC(=O)[C@H](Cc2c[nH]cn2)NC(=O)[C@H](Cc2c[nH]cn2)NC(=O)[C@H](C(C)C)NC(=O)[C@H](Cc2c[nH]c3ccccc23)NC1=O,pIC50,[1],5.52
CCCC[C@@H]1NC(=O)[C@H](Cc2ccc(F)cc2)NC(=O)[C@H](CCCNC(=N)N)NC(=O)[C@H](Cc2ccc3ccccc3c2)NC(=O)[C@H](CCCNC(=N)N)NC(=O)[C@H](CCCNC(=N)N)NC(=O)[C@H](CCC(N)=O)NC(=O)[C@H](C)NC(=O)[C@H]([C@@H](C)O)NC(=O)[C@H](Cc2c[nH]c3ccccc23)NC(=O)[C@H](CO)NC1=O (cyclo([2Nal]R[Phe(4-F)][Nle]SWTAQRR)),pIC50,GTPase KRas/RAF1,6.19
CC[C@H](C)[C@@H]1NC(=O)[C@H](CC(C)C)N(C)C(=O)C[C@H](C)NC(=O)[C@H](C(C)C)N(C)C(=O)C2(CCCC2)NC(=O)[C@@H]2CCCN2C(=O)[C@H](CCc2ccc(C(F)(F)F)c(Cl)c2)NC(=O)CN(C)C(=O)[C@H](CC2CCCCC2)N(C)C(=O)CN(C)C1=O (cyclo([Ac5c][NMeV][β3hA][NMeL]I[Sar][NMeCha][Sar][hPhe(3-Cl-4-CF3)]P)),pIC50,SOS1-KRAS,7.96
Cc1[nH]c2cc(Cl)cc(Cl)c2c1CCN,pKd,GTPase KRas [2],~2.96
CC[C@H](C)[C@@H]1NC(=O)[C@H](CC(C)C)N(C)C(=O)C[C@H](C)NC(=O)[C@H](C(C)C)N(C)C(=O)C2(CCCC2)NC(=O)[C@@H]2CCCN2C(=O)[C@H](CCc2ccc(C(F)(F)F)c(Cl)c2)NC(=O)CN(C)C(=O)[C@H](CC2CCCCC2)N(C)C(=O)[C@@H]2CCN2C(=O)[C@H](C)N(C)C1=O (cyclo([Ac5c][NMeV][β3hA][NMeL]I[NMeA][Aze][NMeCha][Sar][hPhe(3-Cl-4-CF3)]P)),pIC50,SOS1-KRAS,7.62
CC[C@H](C)[C@@H]1NC(=O)[C@H](C)N(C)C(=O)C[C@@H](C(=O)N2CCCC2)NC(=O)[C@H](CC(C)C)N(C)C(=O)[C@H](Cc2ccccc2)N(C)C(=O)[C@H](CC(C)C)NC(=O)[C@H](CCc2ccc(C(F)(F)F)cc2)NC(=O)CN(C)C(=O)[C@H](Cc2ccc(Cl)cc2)N(C)C(=O)CN(C)C1=O ([NMeA]I[Sar][NMePhe(4-Cl)][Sar][hPhe(4-CF3)]L[NMeF][NMeL]D-Pyrrolidide; lactam N-10),pIC50,SOS1-KRAS,7.74
CC(C)[C@H]1NC(=O)[C@H](CCCNC(=N)N)NC(=O)[C@@H](Cc2ccccc2)NC(=O)[C@@H]2CCCCNC(=O)c3cc(cc(c3)C(=O)N[C@H](Cc3ccc4ccccc4c3)C(=O)N[C@@H](CO)C(=O)N[C@@H](CCC(N)=O)C(=O)N[C@H](Cc3ccc4ccccc4c3)C(=O)N[C@@H](c3ccccc3)C(=O)N2)C(=O)NC[C@@H](C(N)=O)NC(=O)[C@H](CCCNC(=N)N)NCC1=O,pKd,GTPase KRas [3],5.80
same,pKd,GTPase KRas [4],5.92
"CC[C@H](C)[C@@H]1NC(=O)[C@H](CC(C)C)N(C)C(=O)C[C@@H](C(=O)N(C)C)N(C)C(=O)[C@H](C2CCCC2)N(C)C(=O)C2(CCCC2)NC(=O)[C@@H]2CCCN2C(=O)[C@H](CCc2cc(F)c(C(F)(F)F)c(F)c2)NC(=O)CN(C)C(=O)[C@H](Cc2ccc(C)cc2)N(CC)C(=O)[C@@H]2CCN2C(=O)[C@H](C)N(C)C1=O ([NMeL]I[NMeA][Aze][NEtPhe(4-Me)][Sar][hPhe(3,5-F2-4-CF3)]P[Ac5c][NMeGly(cPent)][NMeD]-NMe2; lactam N-11)",pIC50,SOS1-KRAS,> 8.70
CC[C@H](C)[C@@H]1NC(=O)[C@H](CC(C)C)N(C)C(=O)C[C@H](C)NC(=O)[C@H](CC(C)C)N(C)C(=O)C2(CCCC2)NC(=O)[C@@H]2CCCN2C(=O)[C@H](CCc2ccc(C(F)(F)F)cc2)NC(=O)CN(C)C(=O)[C@H](CC2CCCCC2)N(C)C(=O)CN(C)C(=O)CN(C)C1=O (cyclo([Ac5c][NMeL][β3hA][NMeL]I[Sar][Sar][NMeCha][Sar][hPhe(4-CF3)]P)),pIC50,SOS1-KRAS,6.96
CCCC[C@@H]1NC(=O)[C@H](Cc2ccc(F)cc2)NC(=O)[C@H](CCCNC(=N)N)NC(=O)[C@H](Cc2ccc3ccccc3c2)NC(=O)[C@H](CCCNC(=N)N)NC(=O)[C@H](CCCNC(=N)N)NC(=O)[C@H](CCCNC(=N)N)NC(=O)[C@H](C)NC(=O)[C@H]([C@@H](C)O)NC(=O)[C@H](Cc2c[nH]c3ccccc23)NC(=O)[C@H](CCC(N)=O)NC1=O (cyclo([2Nal]R[Phe(4-F)][Nle]QWTARRR)),pIC50,GTPase KRas/RAF1,6.92
CC[C@H](C)[C@@H]1NC(=O)[C@@H]2CCCN2C(=O)[C@H](Cc2ccc(O)cc2)NC(=O)[C@@H](NC(=O)[C@H](CC(=O)O)NC(=O)[C@H](Cc2ccc(O)cc2)NC(=O)[C@H](Cc2ccccc2)NC(=O)[C@H](Cc2c[nH]cn2)NC(=O)[C@@H](N)Cc2ccccc2)CC#CC[C@@H](C(=O)N[C@@H](CC(C)C)C(=O)N[C@H](C(=O)N2CCC[C@H]2C(=O)N2CCC[C@H]2C(N)=O)[C@@H](C)CC)NC1=O,pIC50,GTPase KRas [5],7.64
CCCCCCC[C@@H]1NC(=O)[C@H](CO)NC(=O)[C@H](Cc2ccc(F)cc2)NC(=O)[C@H](CC(=O)O)NC(=O)[C@@H]2CCCN2C(=O)[C@H](Cc2c[nH]c3ccccc23)NC(=O)[C@H]2CSCCCSC[C@H](NC1=O)C(=O)N[C@@H](CCCC)C(=O)NCCC(=O)N2,pEC50,GTPase KRas [6],7.66
CC(C)C[C@H](NC(=O)C1CCCOCc2cnnn2CCC(=O)NCC(=O)N2CCCC[C@H]2C(=O)N[C@@H](Cc2cccc3ccccc23)C(=O)N1)C(N)=O (some centres not stated),pIC50,GTPase KRas [5],5.11
CC[C@H](C)[C@@H]1NC(=O)[C@@H]2CCCN2C(=O)CNC(=O)CCn2nncc2COCCCC(C(=O)N[C@@H](CC(C)C)C(N)=O)NC1=O (some centres not stated),pIC50,GTPase KRas [5],4.00
CC[C@H](C)[C@H](NC(=O)CNC(=O)[C@H](Cc1ccccc1)NC(=O)[C@H](Cc1ccccc1)NC(=O)[C@H](CCCNC(=N)N)NC(=O)[C@H](CCCNC(=N)N)NC(C)=O)C(=O)N[C@@]1(C)CCC/C=C\CCC[C@@](C)(C(=O)N[C@@H](CC(C)C)C(=O)N[C@@H](CCCCN)C(=O)N[C@H](C(=O)N[C@@H](CCC(=O)O)C(=O)N[C@@H](CCC(=O)O)C(=O)NCC(=O)N[C@@H](CC(N)=O)C(N)=O)[C@@H](C)O)NC(=O)[C@@H](CC(N)=O)NC(=O)[C@H]([C@@H](C)O)NC(=O)[C@@H](CC(C)C)NC1=O,pIC50,SOS1-KRAS,7.44
CC(C)C[C@H](NC(=O)C1CCCOCc2cnnn2CCC(=O)NCC(=O)N2CCC[C@H]2C(=O)N[C@@H](Cc2cccc3ccccc23)C(=O)N1)C(N)=O (some centres not stated),pIC50,GTPase KRas [5],5.15
CC[C@H](C)[C@@H]1NC(=O)[C@H](C)N(C)C(=O)C[C@@H](C(=O)N2CCCC2)NC(=O)[C@H](C(C)C)N(C)C(=O)[C@H](Cc2ccccc2)N(C)C(=O)[C@H](Cc2c[nH]c3ccccc23)NC(=O)[C@H](Cc2cccc(Cl)c2)NC(=O)CN(C)C(=O)[C@H](Cc2ccc(Cl)cc2)N(C)C(=O)CN(C)C(=O)CN(C)C1=O ([NMeA]I[Sar][Sar][NMePhe(4-Cl)][Sar][Phe(3-Cl)]W[NMeF][NMeV]D-Pyrrolidide; lactam N-11),pIC50,SOS1-KRAS,7.27
C[C@@H](NC(=O)[C@H](Cc1ccccc1)NC(=O)[C@@H](CCCNC(=N)N)NC(=O)[C@H](CCCN)NC(=O)[C@@H]1CNC(=O)c2cc3cc(c2)C(=O)N[C@H](Cc2ccc4ccccc4c2)C(=O)N[C@@H](CO)C(=O)N[C@@H](CC(N)=O)C(=O)N[C@H](Cc2ccc4ccccc4c2)C(=O)N[C@@H](c2ccccc2)C(=O)N[C@@H](CCCCNC3=O)C(=O)N[C@H](Cc2ccccc2)C(=O)N[C@@H](CCC(N)=O)C(=O)N[C@H](CCCNC(=N)N)C(=O)CN[C@@H](CCCNC(=N)N)C(=O)N1)C(N)=O,pIC50,SOS1-KRAS,6.92
CC[C@H](C)[C@@H]1NC(=O)[C@H](Cc2ccc(O)cc2)NC(=O)[C@H](CC(C)C)NC(=O)[C@@H]2CCCN2C(=O)[C@@H](NC(=O)[C@H](CCCNC(=N)N)NC(=O)[C@H](CCCNC(=N)N)NC(C)=O)CSSC[C@@H](C(=O)N[C@@H](CCCNC(=N)N)C(=O)N[C@@H](CCCNC(=N)N)C(N)=O)NC(=O)[C@H](C(C)C)NC(=O)[C@@H]2CCCN2C(=O)[C@H](CC(=O)O)NC(=O)[C@H](Cc2ccc(O)cc2)NC(=O)[C@H](CO)NC1=O (Ac-RRCPLYISYDPVCRR-NH2; disulfide 3-13),pKd,GTPase KRas [7],7.29
same,pIC50,GTPase KRas [8],8.05
CC(C)C[C@@H]1NC(=O)[C@H](CCC(=O)O)NC(=O)[C@H](CC(C)C)NC(=O)[C@@H]2CCCN2C(=O)[C@H](CCCNC(=N)N)NC(=O)[C@H](Cc2ccc(O)cc2)NC(=O)[C@@H]2CCCN2C(=O)[C@H](Cc2ccc(O)cc2)NC(=O)[C@H](CC(N)=O)NC(=O)[C@@H](Cc2ccc(O)cc2)NC(=O)CSC[C@@H](C(=O)NCC(N)=O)NC(=O)[C@H](Cc2ccc(O)cc2)NC(=O)[C@H](Cc2c[nH]c3ccccc23)NC1=O,pIC50,[1],4.82
